Like-named read-outs stand apart in the source and are kept apart here.
Experiments:
human DOR = target: T1, human DOR (Homo sapiens, UniProt P41143); assay: Radioligand competitive binding assay with [3H]DPDPE, membranes from CHO-hDOR cells; settings: compound at 10 μM
T1 construct: expressed in transfected cells; host or cells: CHO cells (CHO-hDOR), gift of Lawrence Toll, SRI International

human KOR [1] = target: T2, human KOR (Homo sapiens, UniProt P41145); assay: Radioligand competitive binding assay with [3H]U69,593, membranes from CHO-hKOR cells; settings: for inhibition at 10 µM: read-out: inhibition of [3H]U69,593 binding at the KOR; for Ki: read-out: binding affinity Ki
human MOR = target: T3, human MOR (Homo sapiens, UniProt P35372); type: binding
T3 construct: expressed in transfected cells; host or cells: CHO cells (CHO-hMOR), gift of Lawrence Toll, SRI International

human KOR [2] = target: T2, human KOR; assay: [35S]GTPγS binding assay (G protein activation), CHO-hKOR cell membranes; type: biochemical; settings: for Emax: read-out: G protein activation Emax
human KOR [3] = target: T2, human KOR; assay: [35S]GTPγS binding assay, antagonist study: inhibition of U69,593-induced stimulation, CHO-hKOR membranes; type: biochemical; settings: U69,593 1 μM
human KOR [4] = target: T2, human KOR; assay: PathHunter β-arrestin2 recruitment assay, U2OS-hKOR-β-arrestin2 cells; type: cell-based; settings: for EC50: U2OS cells coexpressing hKOR and β-arrestin2, tested up to 10 μM, read-out: β-arrestin2 recruitment EC50 (dash symbol)
human KOR [5] = target: T2, human KOR; assay: [35S]GTPγS binding assay, antagonist study: inhibition of U69,593-induced stimulation, CHO-hKOR membranes; type: biochemical; settings: U69,593 1 μM; read-out: inhibition of U69,593-induced stimulation of [35S]GTPγS binding, Inhibition
KOR = settings: cited from earlier work
human KOR [6] = target: T2, human KOR; assay: [35S]GTPγS binding assay, antagonist study: inhibition of U69,593-induced stimulation, CHO-hKOR membranes; type: biochemical; set-up: dose or concentration left out as unconfirmed; settings: read-out: inhibition of U69,593-induced stimulation of [35S]GTPγS binding, Inhibition

Compound	binding at the DOR (human DOR)	Ki (human KOR [1])	binding at the MOR (human MOR)	EC50 (human KOR [2])	β-arrestin2 recruitment upon activation of the KOR (in words) (human KOR [4])	EC50 (human KOR [4])	further results
CCO[C@@]12Cc3c([nH]c4ccccc34)[C@]3(C)Oc4c(O)ccc5c4[C@@]31CCN(CC1CC1)C2C5 [HS378, reference compound]	significant binding	–	–	–	–	–	–
Cc1cc2n(n1)C1(CCN(C(=O)c3ccc(Cl)cc3)CC1)CC(=O)N2CC1CC1 [SalA-VS-07]	no substantial binding	423 ± 97 nM	no substantial binding	181 ± 49 nM	failed to induce β-arrestin2 recruitment	> 10000 nM	inhibition at 10 µM (human KOR [1]; compound at 10 μM): > 50%; Emax (human KOR [2]; relative to maximal effect of U69,593 (as 100%)): 48 ± 7%; IC50 (human KOR [3]): 1270 ± 334 nM; inhibition (human KOR [5]): 52 ± 4%
Cc1cc2n(n1)C1(CCN(C(=O)c3cccc(F)c3)CC1)CC(=O)N2CC1CC1 [SalA-VS-08]	no substantial binding	68.5 ± 5.5 nM	no substantial binding	854 ± 60 nM	failed to induce β-arrestin2 recruitment	> 10000 nM	increased affinity at the KOR than SalA-VS-07 (human KOR [1]): about 6 fold; inhibition at 10 µM (human KOR [1]): > 50%; lower agonist potency at the KOR compared to SalA-VS-07 (human KOR [2]): 5 fold; Emax (human KOR [2]): 108 ± 8%
Cc1cc2n(n1)C1(CCN(C(=O)c3ccncc3)CC1)CC(=O)N2CC1CC1 [SalA-VS-09]	–	–	–	–	–	–	KOR activity (in words) (human KOR [1]; binding screen at 10 μM): inactive
COC(=O)[C@@H]1C[C@H](O)C(=O)[C@H]2[C@@]1(C)CC[C@H]1C(=O)O[C@H](c3ccoc3)C[C@]21C [SalB, Salvinorin B]	–	–	–	–	–	–	activity at the KOR (in words) (KOR): inactive
Oc1ccc2c3c1O[C@H]1c4[nH]c5c(c4C[C@@]4(O)[C@@H](C2)N(CC2CC2)CC[C@]314)C[C@@]1(O)[C@H]2Cc3ccc(O)c4c3[C@@]1(CCN2CC1CC1)[C@H]5O4 [nor-BNI, nor-binaltorphimine, reference compound]	–	–	–	–	–	–	inhibition (human KOR [6]): 92 ± 6%

Source: paper PMC11345774, “Discovery of Novel, Selective, and Nonbasic Agonists for the Kappa-Opioid Receptor Determined by Salvinorin A-Based Virtual Screening” (Journal of Medicinal Chemistry, 2024)
